Reference: publication PMC12085125 (Drug Design, Development and Therapy, 2025)

Key:
[1] = healthy male adults; cited from earlier work
rat liver microsomes = conditions: metabolism to M8, n=3
[2] = system: cytochrome P450 3A4 (CYP3A4); conditions: cited from earlier work
[3] = system: cytochrome P450 2C19 (CYP2C19); conditions: cited from earlier work
in vitro = conditions: Sprague-Dawley, rat, liver microsomes
[4] = system: tofacitinib metabolism in rat liver microsomes (enzyme not specified); assay: Inhibition of tofacitinib metabolism in rat liver microsomes; type: in vitro ADME; conditions: probe tofacitinib
[5] = cited from earlier work

Structure (SMILES)	increase of AUC of tofacitinib when combined [1]	increase of Cmax of tofacitinib when combined [1]	IC50 at 30 min [4]	further results
OC(Cn1cncn1)(Cn1cncn1)c1ccc(F)cc1F [Fluconazole]	79%	27%		
C[C@@H]1CCN(C(=O)CC#N)C[C@@H]1N(C)c1ncnc2[nH]ccc12 [Tofacitinib]				Vmax of tofacitinib enzyme kinetics (rat liver microsomes): 5.482 pmol/min/mg; share processed by CYP3A4 [2]: approximately 50%; share processed by CYP2C19 [3]: ~20%; Km at 30 min (in vitro): 37.3 µM
COc1ccc2c(c1)C(=O)N(CCc1ccc(S(=O)(=O)NC(=O)NC3CCCCC3)cc1)C(=O)C2(C)C [Gliquidone]			1140 nM	half-life ([5]; after oral administration): approximately 1.5 hours
CC#CCn1c(N2CCC[C@@H](N)C2)nc2c1c(=O)n(Cc1nc(C)c3ccccc3n1)c(=O)n2C [Linagliptin]			4060 nM	bioavailability [5]: approximately 30%
CC(=O)N1CCN(c2ccc(OCC3COC(Cn4ccnc4)(c4ccc(Cl)cc4Cl)O3)cc2)CC1 (stereo not drawn) [Ketoconazole]	103%	16%		
